Consider two compounds from US6420438B1, “1-amino-7-isoquinoline derivatives as serine protease inhibitors” (Tularik Limited, priority 1998, dated 2002).

The target in this assay is T1, human factor Xa (Homo sapiens, UniProt P00742).
T1 construct: Purified human factor Xa; purchased Alexis Corporation, Nottingham, UK
Kind of assay: Enzyme inhibition assay, chromogenic substrate pefachrome-FXA. It is filed as biochemical. To be noted: room temperature, 0.1M phosphate buffer, pH7.4.

T1 sequence (P00742 235-488 limits assumed): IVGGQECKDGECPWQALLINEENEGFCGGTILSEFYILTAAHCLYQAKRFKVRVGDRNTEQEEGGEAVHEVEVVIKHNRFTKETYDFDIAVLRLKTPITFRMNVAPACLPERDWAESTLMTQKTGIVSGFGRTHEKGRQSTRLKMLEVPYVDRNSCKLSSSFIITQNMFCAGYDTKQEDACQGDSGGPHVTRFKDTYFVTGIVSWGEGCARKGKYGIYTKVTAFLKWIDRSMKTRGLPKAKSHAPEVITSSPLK
T1 sequence (P00742 41-179 partner limits assumed): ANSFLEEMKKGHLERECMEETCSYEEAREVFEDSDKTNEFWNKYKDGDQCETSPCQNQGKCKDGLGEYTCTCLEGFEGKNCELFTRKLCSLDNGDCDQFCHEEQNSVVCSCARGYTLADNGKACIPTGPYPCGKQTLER

The term Ki denotes the equilibrium dissociation constant of an inhibitor or competing ligand from its target. High values mean lower affinity, low ones higher affinity. With `CN1CCC(C2CCN(C(=O)[C@H](NC(=O)c3ccc4ccnc(N)c4c3)c3ccccc3)CC2)CC1` [Example 75, 1-Aminoisoquinolin-7-oyl-D-phenylglycine-4,4′-(1′-methyl)bipiperidinamide], the Ki came out at 0.008 µM. The result for `N=C(N)c1ccccc1` [benzamidine] reads 155 µM.
